For this assay, the system named is L1210 leukemia ip in BDF1 mice, survival T/C. In words: NCI In Vivo Anticancer Drug Screen. Data for tumor model L1210 Leukemia (intraperitoneal) in B6D2F1 (BDF1) mice. As to conditions: endpoint: mean survival time, higher = longer survival. The essentials:
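Mice bearing the transplanted tumor received compound or vehicle. Survival of the treated group was divided by that of the vehicle-treated control group to give the ratio.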

Setting [1] is: dose: 100.0 mg/kg/injection, schedule: Q01DX001 (ip), vehicle: carboxymethylcellulose (CMC).
The mark [2] stands for this setting: dose: 100.0 mg/kg/injection, schedule: Q04DX003 (ip), vehicle: carboxymethylcellulose (CMC).
[3] abbreviates: dose: 200.0 mg/kg/injection, schedule: Q01DX001 (ip), vehicle: carboxymethylcellulose (CMC).
[4] abbreviates: dose: 400.0 mg/kg/injection, schedule: Q01DX001 (ip), vehicle: carboxymethylcellulose (CMC).
The mark [5] stands for this setting: dose: 100.0 mg/kg/injection, schedule: Q01DX001 (ip), vehicle: saline.
Where [6] appears, read: dose: 200.0 mg/kg/injection, schedule: Q01DX001 (ip), vehicle: saline.
The mark [7] stands for this setting: dose: 400.0 mg/kg/injection, schedule: Q01DX001 (ip), vehicle: saline.
Setting [8] is: dose: 100.0 mg/kg/injection, schedule: Q01DX009 (ip), vehicle: Klucel (hydroxypropylcellulose) (HPC).
Setting [9] is: dose: 200.0 mg/kg/injection, schedule: Q01DX009 (ip), vehicle: Klucel (hydroxypropylcellulose) (HPC).
Where [10] appears, read: dose: 12.5 mg/kg/injection, schedule: Q01DX009 (ip), vehicle: saline.
The mark [11] stands for this setting: dose: 25.0 mg/kg/injection, schedule: Q01DX009 (ip), vehicle: saline.
Where [12] appears, read: dose: 25.0 mg/kg/injection, schedule: Q04DX003 (ip), vehicle: saline with Tween-80.
[13] abbreviates: dose: 50.0 mg/kg/injection, schedule: Q04DX003 (ip), vehicle: saline with Tween-80.
The mark [14] stands for this setting: dose: 50.0 mg/kg/injection, schedule: Q01DX009 (ip), vehicle: saline.
Where [15] appears, read: dose: 100.0 mg/kg/injection, schedule: Q01DX009 (ip), vehicle: saline with Tween-80.
Where [16] appears, read: dose: 200.0 mg/kg/injection, schedule: Q01DX009 (ip), vehicle: saline with Tween-80.
Setting [17] is: dose: 400.0 mg/kg/injection, schedule: Q01DX009 (ip), vehicle: saline with Tween-80.
Setting [18] is: dose: 50.0 mg/kg/injection, schedule: Q01DX009 (ip), vehicle: saline with Tween-80.
Where [19] appears, read: dose: 100.0 mg/kg/injection, schedule: Q04DX003 (ip), vehicle: Klucel (hydroxypropylcellulose) (HPC).
The mark [20] stands for this setting: dose: 200.0 mg/kg/injection, schedule: Q04DX003 (ip), vehicle: Klucel (hydroxypropylcellulose) (HPC).
Setting [21] is: dose: 400.0 mg/kg/injection, schedule: Q04DX003 (ip), vehicle: Klucel (hydroxypropylcellulose) (HPC).
The mark [22] stands for this setting: dose: 100.0 mg/kg/injection, schedule: Q04DX003 (ip), vehicle: saline with Tween-80.

Inconclusive results and toxic doses are left out.

For `N#CCC(=O)NCc1ccncc1`, the T/C reads like this: under setting [1], 95 % of control; under setting [2], 95 % of control; under setting [3], 106 % of control; (dose: 200.0 mg/kg/injection, schedule: Q04DX003 (ip), vehicle: carboxymethylcellulose (CMC)) 96 % of control; under setting [4], 108 % of control; (dose: 400.0 mg/kg/injection, schedule: Q04DX003 (ip), vehicle: carboxymethylcellulose (CMC)) 91 % of control.

For `O=C(O)/C=C(\Cl)c1ccccc1`, the T/C is, setting by setting: (dose: 50.0 mg/kg/injection, schedule: Q01DX001 (ip), vehicle: saline) 112 % of control; under setting [5], 112 % of control; under setting [6], 104 % of control; under setting [7], 106 % of control.

Turning to `C[CH2][Ge]1([CH2]C)[CH2]CC2(C[CH2]1)NC(=O)NC2=O`, the T/C reads like this: (dose: 100.0 mg/kg/injection, schedule: Q04DX002 (ip), vehicle: saline) 103 % of control; (dose: 200.0 mg/kg/injection, schedule: Q04DX002 (ip), vehicle: saline) 100 % of control; (dose: 400.0 mg/kg/injection, schedule: Q04DX002 (ip), vehicle: saline) 96 % of control.

On to `CC(=O)NC(C)Cc1ccc2c(c1)OCO2` (stereo not given), for which the T/C is 102 % of control under setting [8] and 107 % of control under setting [9].

As to `COC(=O)C1OC1c1ccc2ccccc2c1` (stereo not given), the T/C is 93 % of control under setting [8]; 95 % of control under setting [9]; 97 % of control (dose: 400.0 mg/kg/injection, schedule: Q01DX009 (ip), vehicle: Klucel (hydroxypropylcellulose) (HPC)).

Take `CN(C)C(c1ccccc1)C(CBr)C(=O)c1ccc(Br)cc1` (stereo not given): the T/C by setting is: under setting [10], 93 % of control; (dose: 12.5 mg/kg/injection, schedule: Q04DX003 (ip), vehicle: saline with Tween-80) 96 % of control; under setting [11], 91 % of control; under setting [12], 102 % of control; under setting [13], 96 % of control.

As for `O=C1OC(C(O)C(O)CO)C(O)C1O` (stereo not given), the T/C is, setting by setting: under setting [14], 92 % of control; (dose: 100.0 mg/kg/injection, schedule: Q01DX009 (ip), vehicle: saline) 92 % of control; (dose: 100.0 mg/kg/injection, schedule: Q04DX003 (ip), vehicle: saline) 92 % of control; (dose: 200.0 mg/kg/injection, schedule: Q01DX009 (ip), vehicle: saline) 97 % of control; (dose: 200.0 mg/kg/injection, schedule: Q04DX003 (ip), vehicle: saline) 94 % of control; (dose: 400.0 mg/kg/injection, schedule: Q04DX003 (ip), vehicle: saline) 100 % of control.

Regarding `CC(=O)Nc1ccc(Cc2ccccc2)cc1[N+](=O)[O-]`, the T/C by setting is: under setting [1], 106 % of control; under setting [3], 98 % of control; under setting [4], 97 % of control.

For the compound `Cc1ccc(C(SCC(N)C(=O)O)(c2ccccc2)c2ccccc2)cc1` (stereo not given), the T/C (dose: 12.5 mg/kg/injection, schedule: Q01DX009 (ip), vehicle: other) is 157 % of control; the T/C under setting [10] is 159 % of control; the T/C (dose: 25.0 mg/kg/injection, schedule: Q01DX009 (ip), vehicle: other) is 157 % of control; the T/C under setting [11] was 171 % of control; the T/C (dose: 50.0 mg/kg/injection, schedule: Q01DX009 (ip), vehicle: other) is 151 % of control; the T/C under setting [14] is 204 % of control.

For the compound `COc1ccc(-c2c(-c3ccccc3)oc3ccc4ccccc4c23)cc1`, the T/C by setting is: under setting [15], 87 % of control; under setting [16], 93 % of control; under setting [17], 92 % of control.

For the compound `OC(/C=C/c1ccccc1)C(O)/C=C/c1ccccc1` (stereo not given), the T/C is 102 % of control under setting [15], 104 % of control under setting [16] and 111 % of control under setting [17].

Regarding `CCC(C)C(=O)Nc1ccc(Cl)c(Cl)c1` (stereo not given), the T/C is, setting by setting: (dose: 100.0 mg/kg/injection, schedule: Q01DX001 (ip), vehicle: Klucel (hydroxypropylcellulose) (HPC)) 108 % of control; (dose: 200.0 mg/kg/injection, schedule: Q01DX001 (ip), vehicle: Klucel (hydroxypropylcellulose) (HPC)) 95 % of control; (dose: 222.0 mg/kg/injection, schedule: Q01DX Z (ip), vehicle: methylcellulose (MC)) 90 % of control; (dose: 333.0 mg/kg/injection, schedule: Q01DX Z (ip), vehicle: methylcellulose (MC)) 102 % of control; (dose: 400.0 mg/kg/injection, schedule: Q01DX001 (ip), vehicle: Klucel (hydroxypropylcellulose) (HPC)) 95 % of control; (dose: 500.0 mg/kg/injection, schedule: Q01DX Z (ip), vehicle: methylcellulose (MC)) 96 % of control.

On to `CC1C=CC(C(=O)Nc2ccc(Cl)c(Cl)c2)N1C` (stereo not given), for which the T/C under setting [18] was 94 % of control, the T/C under setting [15] was 91 % of control and the T/C under setting [16] is 93 % of control.

As for `Nc1ccc2[nH]c(=S)sc2c1`, the T/C reads like this: under setting [15], 104 % of control; under setting [16], 104 % of control; under setting [17], 108 % of control.

As for `CCCCCCCN(CCCCCCC)CC(O)c1cc2ccccc2c2cnccc12` (stereo not given), the T/C is, setting by setting: (dose: 100.0 mg/kg/injection, schedule: Q01DX009 (ip), vehicle: other) 98 % of control; under setting [19], 91 % of control; (dose: 200.0 mg/kg/injection, schedule: Q01DX009 (ip), vehicle: other) 97 % of control; under setting [20], 98 % of control; under setting [21], 93 % of control.

Take `CC(=O)/C=N/Nc1ccccc1`: the T/C runs as follows: (dose: 25.0 mg/kg/injection, schedule: Q01DX009 (ip), vehicle: Klucel (hydroxypropylcellulose) (HPC)) 93 % of control; (dose: 50.0 mg/kg/injection, schedule: Q01DX009 (ip), vehicle: Klucel (hydroxypropylcellulose) (HPC)) 97 % of control; (dose: 50.0 mg/kg/injection, schedule: Q04DX003 (ip), vehicle: carboxymethylcellulose (CMC)) 110 % of control; under setting [8], 97 % of control; under setting [2], 106 % of control.

As for `CCOC(=O)C(C(=O)OCC)C1c2ccccc2-c2ccccc21`, the T/C is 102 % of control under setting [19], 96 % of control under setting [20] and 100 % of control under setting [21].

In the case of `Cc1cccc(Cl)c1NC(=O)CCC(=O)O`, the T/C is 101 % of control under setting [5], 101 % of control under setting [6] and 95 % of control under setting [7].

Take `CC(O)C(c1ccccc1)c1ccccc1` (stereo not given): the T/C reads like this: under setting [18], 94 % of control; under setting [15], 102 % of control; under setting [16], 97 % of control.

In the case of `COC1OC2COc3ccccc3OC2C(N)C1N(C)c1ccccc1` (stereo not given), the T/C (dose: 18.75 mg/kg/injection, schedule: Q01DX001 (ip), vehicle: saline with Tween-80) is 98 % of control; the T/C (dose: 37.5 mg/kg/injection, schedule: Q01DX001 (ip), vehicle: saline with Tween-80) is 96 % of control; the T/C (dose: 75.0 mg/kg/injection, schedule: Q01DX001 (ip), vehicle: saline with Tween-80) was 93 % of control.

`O=C(CNC(=O)c1ccc(Cl)cc1Cl)N/N=C/c1cccc([N+](=O)[O-])c1`: the T/C (dose: 12.5 mg/kg/injection, schedule: Q01DX009 (ip), vehicle: saline with Tween-80) is 96 % of control and the T/C under setting [18] was 89 % of control.

For `CCC(N)C(O)C(Cl)(Cl)Cl` (stereo not given), the T/C by setting is: under setting [15], 103 % of control; under setting [22], 89 % of control; under setting [16], 98 % of control; under setting [17], 109 % of control.

Consider `CCOC(=O)/C(C#N)=C(\C)c1cccc(C)c1`, for which the T/C under setting [12] is 94 % of control, the T/C under setting [13] was 94 % of control and the T/C under setting [22] is 102 % of control.

Turning to `c1ccc(CCN2CCN(CCc3ccccn3)CC2)nc1`, the T/C under setting [5] was 98 % of control.

Take `CCc1ccncc1`: the T/C was 101 % of control under setting [5] and 88 % of control under setting [6].
